The values below come from publication PMC3931136 (Scientific Reports, 2014).

The assay has as its system S. suis BgaC. Put plainly: p-nitrophenol release, absorbance at […] nm. It is filed as biochemical, Streptococcus suis. Particulars: pH 5.5, 42 °C, 30 min (stated optimum); PBS, 10 mM MgCl2, 10 mM DTT.

By Km is commonly meant the substrate concentration at which the rate is half of its maximum. `O=[N+]([O-])c1ccc(O[C@@H]2O[C@H](CO)[C@H](O)[C@H](O)[C@H]2O)cc1` [pNPG, p-nitrophenyl-β-galactopyranoside]: the Michaelis-Menten constant (Km) was 398 µM.
